Data: US20220226265A1, “METHODS OF CONTROLLING MYOCARDIAL BLOOD FLOW” (UNIVERSITY OF LOUISVILLE RESEARCH FOUNDATION, INC., priority 2021, published 2022)

Test system: wild type and Kvβ-null mice
Assay: Echocardiographic cardiac function during intravenous norepinephrine infusion
Type: in vivo, mouse
Conditions: for ejection fraction: after 1 min of 5 μg/kg·min−1 norepinephrine infusion
Excerpt: In vivo measurements of cardiac function and myocardial blood flow: Mice were anesthetized with 3% isoflurane and supplemental O2, administered (1 L·min^−1) in a small induction chamber. After induction, the mice were placed on a controlled heating table in a supine position. Anesthesia was maintained throughout the procedure by delivery of 1-2% isoflurane and supplemental O2 (0.5 L·min^−1). The extremities were secured to the surgical table by tape and a lubricated probe was inserted rectally to monitor body temperature. The chest, neck, and hind limb hair were then removed using a depilatory agent, the skin was rinsed with warm water, and the neck area was disinfected with 70% ethanol/betadine and an incision (10-15 mm) was made at the right side of the neck. For infusion of contrast agent and drugs, the jugular vein was isolated using blunt forceps and catheterized with sterilized PE-50 polyethylene tubing (pre-filled with heparinized saline; 50 U·ml^−1). The jugular vein catheter was then secured in place with two sutures. For continuous measurement of arterial blood pressure, a small incision was made on the hind limb and the femoral artery was isolated and cannulated with a 1.2 F pressure catheter (SciSense, Transonic Systems, Inc., Ithaca, N.Y., USA) connected to a PowerLab data acquisition system (ADInstruments, Colorado Springs, Colo., USA) through a SP200 pressure interface unit designed to measure arterial blood pressure and heart rate. After cannulation, the pressure catheter was advanced 10 mm into the abdominal aorta.
Ultrasound gel was centrifuged in a 60 mL syringe (1500×g, 10 min) to remove air bubbles, warmed to 37° C., and applied to the chest. Cardiac function was measured by M-mode transthoracic echocardiographic imaging of the parasternal short axis view, mid-papillary level using a Vevo 2100 high resolution echocardiography imaging system (FujiFilm VisualSonics, Toronto, ON, Canada). Contrast echocardiography was performed by using Siemens ultrasound imaging system (Sequoia Acuson C512; Siemens Medical Systems USA Inc., Mountain View, Calif.) with a high-frequency linear-array probe (15L8) held in place by a 3D railing system. For myocardial contrast echocardiography (MCE), we administered lipid-shelled microbubbles, which were freshly prepared by sonication of a decafluorobutane gas-saturated aqueous suspension of distearoylphosphatidylcholine (2 mg/mL) and polyoxyethylene-40-stearate (1 mg/mL). The contrast agent was intravenously infused via the jugular vein catheter at a rate of ˜5×10^5 microbubbles·min-1 (20 μl·min^−1) and MCE was performed by administering a multi-pulse contrast-specific pulse sequence to detect non-linear microbubble contrast signal at low mechanical index (MI=0.18-0.25). Data were acquired during and after a 1.9 MI pulse sequence to destruct microbubbles within the acoustic field, followed by imaging of replenished contrast signal.
Measurements of cardiac function, myocardial perfusion, and arterial blood pressure were performed at baseline, after administration of hexamethonium (5 mg·kg^−1, i.v.), and following successive doses of norepinephrine (0.5, 1.0, 2.5, and 5.0 μg·kg^−1·min^−1; 3 min duration each dose, followed by 3-5 min washout). […] All data analyses and calculations of cardiac workload (double product of mean arterial pressure and heart rate), cardiac function, myocardial blood flow, and mean arterial pressure were performed offline. For pressure measurements, we used Lab Chart 8 software (ADInstruments, Colorado Springs, Colo., USA). Left ventricular volume at end diastole (LVEDV) and end systole (LVESV), as well left ventricular internal diameter at end diastole (LVID,d) and end systole (LVID,s) were measured at steady state after drug infusions. […]

[1] = NE 0.5 μg/kg·min−1 i.v., Kvβ1.1−/− mice
[2] = NE 0.5 μg/kg·min−1 i.v., Kvβ2−/− mice
[3] = NE 0.5 μg/kg·min−1 i.v., SM22α-rtTA mice
[4] = NE 0.5 μg/kg·min−1 i.v., SM22α-rtTA:TRE-Kvβ1 mice
[5] = NE 0.5 μg/kg·min−1 i.v., Wild type (129SvEv) mice
[6] = NE 0.5 μg/kg·min−1 i.v., Wild type (C57B16N) mice
[7] = NE 1 μg/kg·min−1 i.v., Kvβ1.1−/− mice
[8] = NE 1 μg/kg·min−1 i.v., Kvβ2−/− mice
[9] = NE 1 μg/kg·min−1 i.v., SM22α-rtTA mice
[10] = NE 1 μg/kg·min−1 i.v., SM22α-rtTA:TRE-Kvβ1 mice
[11] = NE 1 μg/kg·min−1 i.v., Wild type (129SvEv) mice
[12] = NE 1 μg/kg·min−1 i.v., Wild type (C57B16N) mice
[13] = NE 2.5 μg/kg·min−1 i.v., Kvβ1.1−/− mice
[14] = NE 2.5 μg/kg·min−1 i.v., Kvβ2−/− mice
[15] = NE 2.5 μg/kg·min−1 i.v., SM22α-rtTA mice
[16] = NE 2.5 μg/kg·min−1 i.v., SM22α-rtTA:TRE-Kvβ1 mice
[17] = NE 2.5 μg/kg·min−1 i.v., Wild type (129SvEv) mice
[18] = NE 2.5 μg/kg·min−1 i.v., Wild type (C57B16N) mice
[19] = NE 5.0 μg/kg·min−1 i.v., Kvβ1.1−/− mice
[20] = NE 5.0 μg/kg·min−1 i.v., Kvβ2−/− mice
[21] = NE 5.0 μg/kg·min−1 i.v., SM22α-rtTA mice
[22] = NE 5.0 μg/kg·min−1 i.v., SM22α-rtTA:TRE-Kvβ1 mice
[23] = NE 5.0 μg/kg·min−1 i.v., Wild type (129SvEv) mice
[24] = NE 5.0 μg/kg·min−1 i.v., Wild type (C57B16N) mice

## NC[C@H](O)c1ccc(O)c(O)c1 [norepinephrine]
[1]
  EDV (left ventricular end diastolic volume): 53.5 ± 4.9 µL
  EF (ejection fraction): 61.4 ± 4.2%
  ESV (left ventricular end systolic volume): 21.3 ± 3.9 µL
  FS (fractional shortening): 32.5 ± 2.8%
  SV (stroke volume): 32.2 ± 1.8 µL
[2]
  EDV (left ventricular end diastolic volume): 48.3 ± 2.7 µL
  EF (ejection fraction): 71.9 ± 3.3%
  ESV (left ventricular end systolic volume): 13.6 ± 1.6 µL
  FS (fractional shortening): 40.7 ± 2.8%
  SV (stroke volume): 34.7 ± 2.4 µL
[3]
  EDV (left ventricular end diastolic volume): 43.6 ± 2.9 µL
  EF (ejection fraction): 82.3 ± 3.3%
  ESV (left ventricular end systolic volume): 8.1 ± 2.0 µL
  FS (fractional shortening): 50.9 ± 3.6%
  SV (stroke volume): 35.4 ± 1.6 µL
[4]
  EDV (left ventricular end diastolic volume): 45.9 ± 3.8 µL
  EF (ejection fraction): 62.7 ± 6.0%
  ESV (left ventricular end systolic volume): 17.7 ± 3.6 µL
  FS (fractional shortening): 33.9 ± 4.1%
  SV (stroke volume): 28.2 ± 2.7 µL
[5]
  EDV (left ventricular end diastolic volume): 50.5 ± 7.8 µL
  EF (ejection fraction): 63.5 ± 2.5%
  ESV (left ventricular end systolic volume): 19.4 ± 3.7 µL
  FS (fractional shortening): 34.2 ± 1.9%
  SV (stroke volume): 31.2 ± 4.2 µL
[6]
  EDV (left ventricular end diastolic volume): 57.8 ± 2.3 µL
  EF (ejection fraction): 71.64 ± 2.2%
  ESV (left ventricular end systolic volume): 16.37 ± 1.4 µL
  FS (fractional shortening): 40.48 ± 2.0%
  SV (stroke volume): 41.46 ± 2.3 µL
[7]
  EDV (left ventricular end diastolic volume): 47.6 ± 8.1 µL
  EF (ejection fraction): 70.9 ± 3.1%
  ESV (left ventricular end systolic volume): 14.1 ± 3.4 µL
  FS (fractional shortening): 40.1 ± 2.4%
  SV (stroke volume): 33.5 ± 5.2 µL
[8]
  EDV (left ventricular end diastolic volume): 48.7 ± 4.6 µL
  EF (ejection fraction): 73.1 ± 1.8%
  ESV (left ventricular end systolic volume): 13.3 ± 1.8 µL
  FS (fractional shortening): 41.4 ± 1.6%
  SV (stroke volume): 42.7 ± 8.2 µL
[9]
  EDV (left ventricular end diastolic volume): 49.4 ± 2.9 µL
  EF (ejection fraction): 80.6 ± 4.2%
  ESV (left ventricular end systolic volume): 10.0 ± 2.6 µL
  FS (fractional shortening): 49.6 ± 4.3%
  SV (stroke volume): 39.4 ± 1.8 µL
[10]
  EDV (left ventricular end diastolic volume): 46.9 ± 4.9 µL
  EF (ejection fraction): 74.2 ± 3.9%
  ESV (left ventricular end systolic volume): 12.7 ± 3.2 µL
  FS (fractional shortening): 42.7 ± 3.3%
  SV (stroke volume): 34.2 ± 2.0 µL
[11]
  EDV (left ventricular end diastolic volume): 46.7 ± 7.4 µL
  EF (ejection fraction): 70.7 ± 5.3%
  ESV (left ventricular end systolic volume): 14.7 ± 4.3 µL
  FS (fractional shortening): 40.1 ± 4.6%
  SV (stroke volume): 32.0 ± 3.7 µL
[12]
  EDV (left ventricular end diastolic volume): 61.6 ± 3.2 µL
  EF (ejection fraction): 72.40 ± 1.2%
  ESV (left ventricular end systolic volume): 17.12 ± 1.3 µL
  FS (fractional shortening): 40.97 ± 1.0%
  SV (stroke volume): 44.52 ± 2.3 µL
[13]
  EDV (left ventricular end diastolic volume): 41.5 ± 8.8 µL
  EF (ejection fraction): 78.2 ± 2.0%
  ESV (left ventricular end systolic volume): 9.4 ± 2.7 µL
  FS (fractional shortening): 46.0 ± 1.8%
  SV (stroke volume): 32.1 ± 6.1 µL
[14]
  EDV (left ventricular end diastolic volume): 52.8 ± 3.5 µL
  EF (ejection fraction): 70.1 ± 2.6%
  ESV (left ventricular end systolic volume): 15.7 ± 1.6 µL
  FS (fractional shortening): 39.0 ± 2.2%
  SV (stroke volume): 37.1 ± 2.8 µL
[15]
  EDV (left ventricular end diastolic volume): 51.5 ± 2.8 µL
  EF (ejection fraction): 77.4 ± 5.1%
  ESV (left ventricular end systolic volume): 12.2 ± 3.1 µL
  FS (fractional shortening): 46.8 ± 4.8%
  SV (stroke volume): 39.3 ± 2.1 µL
[16]
  EDV (left ventricular end diastolic volume): 47.5 ± 5.5 µL
  EF (ejection fraction): 74.2 ± 5.7%
  ESV (left ventricular end systolic volume): 13.2 ± 4.3 µL
  FS (fractional shortening): 43.1 ± 4.8%
  SV (stroke volume): 34.3 ± 1.4 µL
[17]
  EDV (left ventricular end diastolic volume): 48.8 ± 6.0 µL
  EF (ejection fraction): 67.9 ± 2.7%
  ESV (left ventricular end systolic volume): 16.0 ± 2.7 µL
  FS (fractional shortening): 37.4 ± 2.1%
  SV (stroke volume): 32.8 ± 3.6 µL
[18]
  EDV (left ventricular end diastolic volume): 62.8 ± 3.7 µL
  EF (ejection fraction): 72.88 ± 1.8%
  ESV (left ventricular end systolic volume): 17.22 ± 1.7 µL
  FS (fractional shortening): 41.47 ± 1.5%
  SV (stroke volume): 45.63 ± 2.6 µL
[19]
  EDV (left ventricular end diastolic volume): 45.7 ± 11.9 µL
  EF (ejection fraction): 79.1 ± 2.7%
  ESV (left ventricular end systolic volume): 10.4 ± 3.4 µL
  FS (fractional shortening): 47.1 ± 2.4%
  SV (stroke volume): 35.3 ± 8.5 µL
[20]
  EDV (left ventricular end diastolic volume): 54.6 ± 4.5 µL
  EF (ejection fraction): 67.5 ± 3.8%
  ESV (left ventricular end systolic volume): 18.5 ± 3.1 µL
  FS (fractional shortening): 37.3 ± 3.0%
  SV (stroke volume): 36.1 ± 2.3 µL
[21]
  EDV (left ventricular end diastolic volume): 56.9 ± 3.9 µL
  EF (ejection fraction): 77.7 ± 5.8%
  ESV (left ventricular end systolic volume): 13.4 ± 3.9 µL
  FS (fractional shortening): 48.1 ± 6.0%
  SV (stroke volume): 43.5 ± 3.1 µL
[22]
  EDV (left ventricular end diastolic volume): 49.3 ± 5.7 µL
  EF (ejection fraction): 69.9 ± 5.0%
  ESV (left ventricular end systolic volume): 15.6 ± 3.9 µL
  FS (fractional shortening): 39.3 ± 4.2%
  SV (stroke volume): 33.7 ± 2.6 µL
[23]
  EDV (left ventricular end diastolic volume): 56.4 ± 5.0 µL
  EF (ejection fraction): 69.1 ± 2.4%
  ESV (left ventricular end systolic volume): 17.3 ± 1.6 µL
  FS (fractional shortening): 38.3 ± 1.9%
  SV (stroke volume): 39.1 ± 4.1 µL
[24]
  EDV (left ventricular end diastolic volume): 66.1 ± 4.4 µL
  EF (ejection fraction): 73.65 ± 2.4%
  ESV (left ventricular end systolic volume): 17.85 ± 2.3 µL
  FS (fractional shortening): 42.39 ± 2.1%
  SV (stroke volume): 48.26 ± 2.7 µL
Kvβ2−/− mice
  ejection fraction: 71±1.7%
WT animals
  ejection fraction: 84±2.2%
